Source: patent US20110195892A1, “Artifical Pulmonary Surfactant Compositions” (priority 2005, published 2011)
Square brackets hold non-standard residues; d marks the D form. Peptide text beside a SMILES is read from it.

Experiments:
erythrocyte = format: cell-based
Description: The hemolytic activity of each peptide was measured in the way as will be described hereinafter.
Each peptide (ca. 1 mg) was dissolved in 20 (l of 100% acetic acid and diluted with phosphate buffer to reach a total amount of 5 ml. The resulting solution was measured for its absorbency (280 nm) to determine its concentration. The solution was then used for experiments in situ by dilution with phosphate buffer.
A blood sample (ca. 3 ml) was centrifuged at 2,000 rpm at 4° C. for 10 minutes and the supernatant was removed to form an erythrocyte sample. To the erythrocyte sample was added 1 ml of phosphate buffer, and the resulting solution was stirred well, followed by centrifugation in the manner as described above. These procedures were repeated three times to obtain the erythrocyte alone. Moreover, 1 ml of phosphate buffer was added to the resulting erythrocyte, and the resulting mixture was stirred well, followed by distributing it by 60 μl to microtubes and centrifuging to remove the supernatant therefrom. The resulting erythrocyte was in turn used for further experiments.
The peptide and a protein solution were then added by 1 ml to the erythrocyte sample, and the resulting solution was stirred well, followed by allowing it to stand at 25° C. for 60 minutes. Thereafter, the tubes were centrifuged to collect the supernatant only (100 μl) which was in turn measured at an absorbency of 542 nm. The supernatant was then returned to each tube and a drop of surfactant Triton® X was added to each tube, followed by stirring it well and measuring for its absorbency at 542 nm.

[1] = Wilhelmy tensiometer; Japanese Patent Publication No. 2004-305006 A1; cited from earlier work

Compound	hemolytic activity of the peptide itself compared to peptide Hel 13-5 (erythrocyte)	hemolytic activity (in words) (erythrocyte)	hemolytic property (erythrocyte)	surface tension-surface area curve (hysteresis curve) compared with Surfacten [1]
CC(C)C[C@H](NC(=O)[C@H](CC(C)C)NC(=O)[C@H](CC(C)C)NC(=O)[C@H](CCCCN)NC(=O)[C@@H](CC(C)C)NC(=O)[C@H](CC(C)C)NC(=O)[C@H](CCCCN)NC(=O)[C@H](CC(C)C)NC(=O)[C@H](Cc1c[nH]c2ccccc12)NC(=O)[C@H](CC(C)C)NC(=O)[C@@H](CCCCN)NC(=O)[C@@H](CC(C)C)NC(=O)[C@H](CC(C)C)NC(=O)[C@H](CC(C)C)NC(=O)[C@H](CCCCN)NC(=O)[C@H](CC(C)C)NC(=O)[C@H](CC(C)C)NC(=O)[C@@H](N)CCCCN)C(=O)O [Hel 13-5D3, NH2-Lys Leu Leu Lys Leu Leu D-Leu D-Lys Leu Trp Leu Lys D-Leu Leu Lys Leu Leu Leu-COOH] (H-KLLKLL[dL][dK]LWLKL[dL]KLLL-OH)	lower by several times	–	–	–
H-KLLKLLLKLWLKLLKLLL-OH [Hel 13-5, NH2-Lys Leu Leu Lys Leu Leu Leu Lys Leu Trp Leu Lys Leu Leu Lys Leu Leu Leu-COOH]	–	strong hemolytic activity	does not demonstrate a hemolytic property	equal curve to that of Surfacten®
